Results taken from US10239878B2, “Macrocyclic ligands with pendant chelating moieties and complexes thereof” (LUMIPHORE, INC., priority 2016, dated 2019).

Legend:
[1] = 250 mM DTPA competition experiments (kinetic stability of Eu complexes); format: physicochemical; conditions: 33⋅Eu versus 16⋅Eu, 43⋅Eu versus 40⋅Eu
Excerpt: From these experiments, it is clear that 43⋅Eu is remarkably stable to a wide range of competitive metal ions and chelators. The competitor concentrations mentioned above are a good way to assess the kinetic stability of the complex in various assay conditions. DTPA is an exceptionally good ligand for lanthanide ions, and thus it is not typically used in practical assays. However, DTPA competition offers an excellent way to benchmark the kinetic stability of the complexes reported here. […] In order to compare the kinetic stability of the complexes reported here, a 750 mM stock solution (25 mL) of DTPA was prepared by dissolving DTPA (7.375 g, 18.75 mmol) into water (20 mL) containing potassium hydroxide (5.26 g, 93.75 mmol). The pH of the DTPA solution was adjusted to pH=7.6 by addition of concentrated hydrochloric acid, and then the solution was diluted to a final volume of 25 mL to give a 750 mM DTPA stock solution at pH=7.6. HPLC purified europium complexes of 16, 29, 33, 40, and 43 were separately diluted to 11 μM in TBS buffer, pH=7.6. For each DTPA competition experiment, 1 mL of the 750 mM DTPA solution was added to 2 mL of the 11 μM europium complex solution. The luminescence at 612 nm (365 nm excitation) was monitored for these five separate solutions containing 250 mM DTPA and 7.1 μM of each europium complex as a function of time.

[2] = Europium titration experiments for determining extinction coefficients; format: physicochemical
Protocol: In order to determine accurate extinction coefficients for 16 and 16⋅Eu, titration experiments using europium chloride as the titrant were performed. Europium chloride hexahydrate (13.22 mg, 0.03608 mmol) was dissolved into 5 mM citrate buffer (pH=4) using a 100 mL volumetric flask to give a 0.3608 mM europium chloride solution, which was then titrated into a 0.5 mL solution of 16 in TBS buffer (Tris-buffered saline, 50 mM Tris, 150 mM NaCl, pH=7.6) using 5 μL aliquots. The UV-vis spectra were adjusted for the increase in solvent volume due to each injection. The results of the UV-vis titration are plotted in FIG. 3.
The volume of europium chloride corresponds to 16.70 nmol of europium, meaning the starting concentration of ligand 16 was 33.40 μM. […] These absorbance and concentration values yield extinction coefficients of 13,600 M^−1 cm^−1 and 14,300 M^−1 cm^−1 for the ligand 16 and the complex 16⋅Eu respectively.
In order to determine accurate extinction coefficients for 43 and 43⋅Eu, titration experiments using europium chloride as the titrant were performed. Europium chloride hexahydrate (47.58 mg, 0.1299 mmol) was dissolved into 50 mM citrate buffer (pH=4) using a 10 mL volumetric flask to give a 12.99 mM europium chloride solution, which was then transferred to a 100 mL volumetric flask and diluted 1:10 with water. The resulting 1.299 mM europium chloride solution (in 5 mM citrate buffer) was then titrated into a 1 mL solution of 43 in TBS buffer using 5 μL aliquots. The UV-vis spectra were adjusted for the increase in solvent volume due to each injection. The results of the UV-vis titration are plotted in FIG. 4.
The volume of europium chloride corresponds to 47.46 nmol of europium, meaning the starting concentration of ligand 43 was 47.46 μM. […] These absorbance and concentration values yield extinction coefficients of 13,000 M^−1 cm^−1 and 12,800 M^−1 cm^−1 for the ligand and complex respectively.
Titration of ligand 43 was also performed by luminescence (FIG. 5), monitoring the europium signal at 612 nm upon photoexcitation of the solution at 340 nm. The ligand solution used for the UV-vis titration of 43 mentioned above was first diluted 1:10 in TBS buffer. Similarly, the 1.299 mM stock europium solution was separately diluted 1:10 with water. […] The 32.99 μL equivalence point gives extinction coefficients of 14,400 M^−1 cm^−1 at 383 nm and 14,200 M^−1 cm^−1 at 357 nm for 43 and 43⋅Eu respectively. Averaging the values from both UV-vis and luminescence titration experiments of 43 yields extinction coefficients of 13,700 M^−1 cm^−1 at 383 nm and 13,500 M^−1 cm^−1 at 357 nm for 43 and 43⋅Eu respectively.

In the case of `NCCOCCNC(=O)C1CCCN(C(=O)c2cccc(=O)n2[O-])CCCNC(=O)c2ccc(n([O-])c2=O)C(=O)NC2COCC2NC(=O)c2ccc(c(=O)n2[O-])C(=O)NCCCN1C(=O)c1cccc(=O)n1[O-].[Eu+3]` (mixture of isomers) [43⋅Eu], the “reduction in kinetic stability upon introduction of the spermine-based sidearm” value [1] is reported as roughly 2 fold, the extinction coefficient ([2]; UV-vis titration with europium chloride, TBS buffer pH 7.6, at lambda max) is reported as 12,800 M^−1 cm^−1 and the lambda max ([2]; UV-vis titration, TBS buffer) is reported as 357 nm. The “extinction coefficient, average of UV-vis and luminescence titration” value ([2]; at 383 nm (ligand) / 357 nm (complex)) was 13,500 M^−1 cm^−1, the “ε at λmax” value ([2]; by europium titration, TBS buffer pH 7.6) was 13,500 M^−1cm^−1 and the extinction coefficient ([2]; luminescence titration (612 nm signal, 340 nm photoexcitation), at 383 nm (ligand) / 357 nm (complex)) was 14,200 M^−1 cm^−1.
